The values below come from patent US5242938A, “Derivatives of virginiamycin M1” (Merck & Co., Inc., priority 1992, dated 1993).

≈ marks a conversion by molar mass, not a printed value. Where two headings read alike, the source gives them in different places. Some results are limits rather than exact numbers.

The subject of one assay is gastric acid secretion. To be noted: cited from earlier work.
The target of assay [1] is T1, CCK-B (guinea pig cortex) (Cavia porcellus, UniProt H0VZC5).
T1 construct: guinea pig cortical preparations; from tissue; host or cells: guinea pig brain cortex membranes
T1 sequence (H0VZC5 1-426): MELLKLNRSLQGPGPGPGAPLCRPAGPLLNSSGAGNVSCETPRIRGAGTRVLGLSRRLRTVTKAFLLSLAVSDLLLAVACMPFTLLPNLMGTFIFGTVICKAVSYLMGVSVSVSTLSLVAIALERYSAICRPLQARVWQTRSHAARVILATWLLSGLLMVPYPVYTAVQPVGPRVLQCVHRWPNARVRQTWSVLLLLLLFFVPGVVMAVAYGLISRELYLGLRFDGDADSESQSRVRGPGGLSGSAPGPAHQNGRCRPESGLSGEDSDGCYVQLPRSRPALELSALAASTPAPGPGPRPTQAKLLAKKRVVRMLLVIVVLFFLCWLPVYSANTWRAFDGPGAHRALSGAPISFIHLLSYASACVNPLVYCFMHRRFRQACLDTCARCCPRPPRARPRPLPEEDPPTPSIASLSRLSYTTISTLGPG
Kind of assay: [125I]BHCCK-8 radioligand binding, guinea pig cortical preparation. To be noted: read-out: CCK binding inhibition - IC50, [125I]BHCCK. The protocol:
(§1) The resulting supernatant was re-spun at 20,000×g for 20 minutes. […] Incubations were for 40 minutes at 4° C. and were terminated by filtration and washing with ice cold 100 mM saline. […] Incubations were for 30 minutes at room temperature and were terminated by filtration over GF/C filters and washing with 100 mM NaCl.

In assay [2] the test system is Salmonella gallinarum (Mb 1287). Kind of assay: Agar diffusion disc assay, Salm 1287. Particulars: Salmonella enterica, GALLINARUM, 18 h; @ 20 g/disc; read-out: Inhibition zone diameter, Salm 1287. In kind it is cell-based. The procedure, abridged:
(§2)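 Paper-disc agar diffusion per Barry. Methanol stock 1 mg/ml, serial dilutions, 20 μl per 6 mm disc, air dried. Seeded plates ~10^6 cfu, ~18 h, 25° C. Zones to nearest mm; n=3, mean.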

In assay [3] the target is T1, CCK-B (guinea pig cortex). Put plainly: [3H]L-365,260 CCK-B selective antagonist ligand binding, brain membranes. Particulars: for IC50: read-out: CCK binding inhibition - IC50, [3H]L-365,260. The protocol: as §1
The test system of assay [4] is Staphylococcus aureus (Mb 2983). Put plainly: Agar diffusion disc assay, Sta 2983. Particulars: Staphylococcus aureus, 18 h; @ 20 g/disc; read-out: Inhibition zone diameter, Sta 2983. In kind it is cell-based. Put shortly: as §2
Assay [5] relates to Streptococcus faecium (Mb 2820). Put plainly: Agar diffusion disc assay, Str 2820. In kind it is cell-based. To be noted: Enterococcus faecium, 18 h; @ 20 g/disc; read-out: Inhibition zone diameter, Str 2820. The procedure, abridged:
as §2

The subject of assay [6] is Corynebacterium pseudodiphtheriticum (Mb 261, ATCC 9742). Kind of assay: Agar diffusion disc assay, Cory 261. In kind it is cell-based. To be noted: Corynebacterium pseudodiphtheriticum, ATCC9742, 18 h; @ 20 g/disc; read-out: Inhibition zone diameter, Cory 261. The procedure, abridged:
as §2

Assay [7] deals with En terobacter aergenes (Mb 835). Kind of assay: Agar diffusion disc assay, Ent 835. To be noted: 18 h; @ 20 g/disc; read-out: Inhibition zone diameter, Ent 835. In kind it is cell-based. Put shortly: as §2
The subject of assay [8] is Escherichia coli (Mb 1418). Put plainly: Agar diffusion disc assay, Coli 1418. In kind it is cell-based. To be noted: Escherichia coli, 18 h; @ 20 g/disc; read-out: Inhibition zone diameter, Coli 1418. The procedure, abridged: as §2
Assay [9] deals with T2, CCK-A (rat pancreas) (Rattus norvegicus, UniProt P30551).
T2 construct: from tissue; host or cells: rat pancreas
T2 sequence (P30551 1-444): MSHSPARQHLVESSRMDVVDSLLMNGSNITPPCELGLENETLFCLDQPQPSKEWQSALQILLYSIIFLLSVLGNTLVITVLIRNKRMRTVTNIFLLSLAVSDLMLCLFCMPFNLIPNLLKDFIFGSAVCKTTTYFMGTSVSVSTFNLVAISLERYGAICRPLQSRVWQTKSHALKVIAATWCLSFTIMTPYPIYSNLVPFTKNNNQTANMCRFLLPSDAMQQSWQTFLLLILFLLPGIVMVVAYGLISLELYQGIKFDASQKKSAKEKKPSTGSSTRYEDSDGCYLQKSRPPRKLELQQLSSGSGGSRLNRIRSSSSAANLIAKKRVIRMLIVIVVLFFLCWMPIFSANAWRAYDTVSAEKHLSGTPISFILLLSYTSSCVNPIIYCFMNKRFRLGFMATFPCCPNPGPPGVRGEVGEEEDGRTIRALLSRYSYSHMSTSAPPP
Kind of assay: [125I]BHCCK-8 radioligand binding, rat pancreatic preparation. Particulars: read-out: CCK binding inhibition - IC50, [125I]BHCCK. The method, then: as §1

The test system of assay [10] is Bacillus subtilis (Mb 964, ATCC 6633). Put plainly: Agar diffusion disc assay, Subt 964. In kind it is cell-based. Particulars: Bacillus subtilis, ATCC6633, 18 h; @ 20 g/disc; read-out: Inhibition zone diameter, Subt 964. The procedure, abridged:
as §2

In assay [11] the test system is Staphylococcus aureus (Mb 108, ATCC 6538P). Put plainly: Agar diffusion disc assay, Sta 108. In kind it is cell-based. Particulars: Staphylococcus aureus, ATCC6538P, 18 h; @ 20 g/disc; read-out: Inhibition zone diameter, Sta 108. The procedure, abridged:
as §2

The subject of assay [12] is Micrococcus luteus (Mb 1101, ATCC 9341). Put plainly: Agar diffusion disc assay, Micr 1101. In kind it is cell-based. Particulars: Micrococcus luteus; for MIC: read-out: Agar Diffusion MIC versus Micrococcus luteus; for zone of inhibition at 10 µg/disc: 10.0 μg/disc; for zone of inhibition at 40 µg/disc: 40.0 μg/disc; for zone of inhibition at 80 µg/disc: 80.0 μg/disc; for zone of inhibition at 160 µg/disc: 160 μg/disc. Put shortly: as §2

The subject of assay [13] is Streptococcus agalactiae (Mb 2875). Put plainly: Agar diffusion disc assay, Str 2875. In kind it is cell-based. To be noted: Streptococcus agalactiae, 18 h; @ 20 g/disc; read-out: Inhibition zone diameter, Str 2875. The procedure, abridged: as §2
The test system of assay [14] is Pseudomonas stutzeri (Mb 1231, ATCC 11607). Put plainly: Agar diffusion disc assay, Pseu 1231. In kind it is cell-based. Particulars: Stutzerimonas stutzeri, ATCC11607, 18 h; @ 20 g/disc; read-out: Inhibition zone diameter, Pseu 1231. Put shortly:
as §2

The target in assay [15] is T2, CCK-A (rat pancreas). Kind of assay: [3H]L-364,718 CCK-A selective antagonist ligand binding, pancreas. Particulars: read-out: CCK binding inhibition - IC50, [3H]L-364,718. The protocol:
as §1

The next assay concerns Bacillus sp. (Mb 633). Kind of assay: Agar diffusion disc assay, Baci 633. In kind it is cell-based. Particulars: Bacillus, 18 h, @ 20 g/disc; read-out: Inhibition zone diameter, Baci 633. Put shortly:
as §2

[16] abbreviates: ATCC9341, 18 h, @ 20 g/disc, read-out: Inhibition zone diameter, Micr 1101.
Setting [17] is: ATCC9341, 25° C., ~18 hours, read-out: Mean of triplicate zone size versus Micrococcus luteus.
The mark [18] stands for this setting: ATCC9341, 20.0 μg/disc, 25° C., ~18 hours, read-out: Mean of triplicate zone size versus Micrococcus luteus.

For the molecule Gastrin-17, in the assay on gastric acid secretion, the “potency for stimulating gastric acid secretion relative to Gastrin-13” value is listed as 2.5 times and the “potency for stimulating gastric acid secretion relative to Gastrin-34” value was 5 times.

As for `CC1=C\[C@@H](OC(=O)c2ccccc2)CC(=O)Cc2nc(co2)C(=O)N2CCC=C2C(=O)O[C@H](C(C)C)[C@H](C)/C=C/C(=O)NC\C=C\1` [Example 6], the IC50 in [1] is 96 nM; in assay [3], 190 nM; on CCK-A (rat pancreas) [9] it was 2300 nM; on CCK-A (rat pancreas) [15], > 3000 nM. Moreover, the zone of inhibition at 20 µg/disc in assay [2], in assay [4], in [5], in assay [6], in [7] and in [8] was 0 mm in each case. Also, the zone of inhibition at 20 µg/disc in assay [10] stood at 0 mm; in assay [11] it was 0 mm; in [12] (setting [16]), 8 mm; in [12] (setting [18]), 9 mm; in assay [13], 0 mm; in assay [14], 0 mm. The zone of inhibition at 20 µg/disc in the assay on Bacillus sp. (Mb 633) amounted to 0 mm. Moreover, the “A.R. = agonist ratio = IC50([3H]L365,260)/IC50([125I]CCK)” value in [3] came out at 2. Moreover, in assay [12] (ATCC9341, 18 h), the MIC was found to be 0.003 µM (≈ 0.00189 µg/mL). Moreover, the zone of inhibition at 10 µg/disc in assay [12] (setting [17]) worked out at 10 mm. Besides, the zone of inhibition at 40 µg/disc in [12] (setting [17]) turned out to be 10 mm. Also, the zone of inhibition at 80 µg/disc in assay [12] (setting [17]) was 10 mm. For the same molecule, in assay [12] (setting [17]), the zone of inhibition at 160 µg/disc came to 11 mm.

For `CC1=C\[C@@H](OC(=O)Nc2cccc([N+](=O)[O-])c2)CC(=O)Cc2nc(co2)C(=O)N2CCC=C2C(=O)O[C@H](C(C)C)[C@H](C)/C=C/C(=O)NC\C=C\1` [Example 9], the IC50 is 400 nM in [1], 5200 nM in assay [3], > 3000 nM on CCK-A (rat pancreas) [9] and > 3000 nM at CCK-A (rat pancreas) [15]. Further, the zone of inhibition at 20 µg/disc in assay [2], in assay [4], in assay [5], in [6], in [7] and in assay [8] was 0 mm throughout. For the same molecule, the zone of inhibition at 20 µg/disc in assay [10] is 0 mm; in [11], 0 mm; in [12] (setting [16]) it was 8 mm; in [12] (setting [18]), 9 mm; in assay [13] it was 0 mm; in [14], 0 mm. Besides, the zone of inhibition at 20 µg/disc in the assay on Bacillus sp. (Mb 633) stood at 0 mm. Also, the “A.R. = agonist ratio = IC50([3H]L365,260)/IC50([125I]CCK)” value in assay [3] came to 12.9. Moreover, the MIC in [12] (ATCC9341, 18 h) came to 0.82 µM (≈ 0.566 µg/mL). For the same molecule, the zone of inhibition at 10 µg/disc in assay [12] (setting [17]) worked out at 8 mm. In assay [12] (setting [17]), the zone of inhibition at 40 µg/disc worked out at 10 mm. The zone of inhibition at 80 µg/disc in assay [12] (setting [17]) worked out at 11 mm. Moreover, in assay [12] (setting [17]), the zone of inhibition at 160 µg/disc worked out at 11 mm.
